Literature values, collected in patent US20260262633A1, “BORDEAUX MIXTURE/ORGANOSULFUR FUNGICIDE NANO-SUSPENSION DISPERSION” (priority 2023, published 2026).

solubility in water: 1.06 µg/mL
Substance: basic copper sulfate
